These molecules were tested against Human TASK-1 channels (Homo sapiens (Human), UniProt O14649) (assay: Determination of the activity on the TASK-1 channel in Xenopus oocytes (two-microelectrode voltage clamp)). Details: compound concentration 5 μM.
Type: cell-based
Outline: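 Xenopus oocytes were injected with human TASK-1 cRNA and recorded two days later by two-microelectrode voltage clamp, holding at −90 mV with 500 ms steps to 40 mV. Superfusion used ND96, pH 7.4, at room temperature, with rising compound concentrations; percentage inhibition of control current was fitted to a dose-response curve for IC50.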

Chain of Human TASK-1 channels (O14649 whole entry): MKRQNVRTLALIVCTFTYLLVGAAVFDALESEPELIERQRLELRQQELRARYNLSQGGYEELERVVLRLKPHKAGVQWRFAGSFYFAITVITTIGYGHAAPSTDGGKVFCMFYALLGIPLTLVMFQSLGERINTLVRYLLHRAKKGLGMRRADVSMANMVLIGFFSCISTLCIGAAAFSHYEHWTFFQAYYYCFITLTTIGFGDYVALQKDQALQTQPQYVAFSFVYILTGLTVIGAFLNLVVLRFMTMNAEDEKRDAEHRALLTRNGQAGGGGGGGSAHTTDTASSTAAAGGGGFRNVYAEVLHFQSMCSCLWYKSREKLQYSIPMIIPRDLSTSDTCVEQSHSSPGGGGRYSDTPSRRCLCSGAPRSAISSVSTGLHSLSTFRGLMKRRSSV

inhibition at 5 µM [%] | SMILES
59 | CC[C@@H](NC(=O)c1cc(C(=O)N2CC[C@@H](C#N)C2)n2c1COCC2)c1ccccc1 [16fy, 6-((R)-3-Cyano-pyrrolidine-1-carbonyl)-3,4-dihydro-1H-pyrrolo[2,1-c][1,4]oxazine-8-carboxylic acid ((R)-1-phenyl-propyl)-amide]
78 | C[C@H]1CCCN1C(=O)c1cc(C(=O)NCc2c(F)cc(F)cc2F)c2n1CCOC2 [16af, 6-((S)-2-Methyl-pyrrolidine-1-carbonyl)-3,4-dihydro-1H-pyrrolo[2,1-c][1,4]oxazine-8-carboxylic acid 2,4,6-trifluoro-benzylamide]

Same assay, conditions: human TASK-1 expressed in Xenopus oocytes, room temperature; read-out: IC50 value for TASK-1 inhibition

IC50 [nM] | SMILES
970 | CC[C@@H](NC(=O)c1cc(C(=O)N2CCC[C@@H]2C)n2c1COCC2)c1ccc(C(F)(F)F)cc1C(F)(F)F [16cp, 6-((S)-2-Methyl-pyrrolidine-1-carbonyl)-3,4-dihydro-1H-pyrrolo[2,1-c][1,4]oxazine-8-carboxylic acid [(R)-1-(2,4-bis-trifluoromethyl-phenyl)-propyl]-amide]
180 | CC[C@@H](NC(=O)c1cc(C(=O)NC(C)c2nnn(C)n2)n2c1COCC2)c1ccccc1 (stereo partly drawn) [16rn, 3,4-Dihydro-1H-pyrrolo[2,1-c][1,4]oxazine-6,8-dicarboxylic acid 6-{[1-(2-methyl-2H-tetrazol-5-yl)-ethyl]-amide} 8-[((R)-1-phenyl-propyl)-amide]]
67 | CC[C@H](NC(=O)c1cc(C(=O)N[C@@H](c2ccc(F)cc2)C(C)C)c2n1CCOC2)c1ccccc1 [16jq, 3,4-Dihydro-1H-pyrrolo[2,1-c][1,4]oxazine-6,8-dicarboxylic acid 8-{[(R)-1-(4-fluoro-phenyl)-2-methyl-propyl]-amide} 6-[((S)-1-phenyl-propyl)-amide]]
2000 | CC[C@@H](NC(=O)c1cc(C(=O)N2CCC[C@@H]2C)c2n1CCOC2)c1ccc(C#N)nc1 [16nj, 8-((S)-2-Methyl-pyrrolidine-1-carbonyl)-3,4-dihydro-1H-pyrrolo[2,1-c][1,4]oxazine-6-carboxylic acid [(R)-1-(6-cyano-pyridin-3-yl)-propyl]-amide]
110 | CC[C@@H](NC(=O)c1cc(C(=O)N2CCC[C@@H]2COC(C)=O)n2c1COCC2)c1ccccc1 [16rg, acetic acid (R)-1-[8-((R)-1-phenyl-propylcarbamoyl)-3,4-dihydro-1H-pyrrolo[2,1-c][1,4]oxazine-6-carbonyl]-pyrrolidin-2-ylmethyl ester]
380 | CC[C@@H](NC(=O)c1cc(C(=O)N2CCCC2C(C)C)n2c1COCC2)c1ccccc1 (stereo partly drawn) [16el, 6-(2-Isopropyl-pyrrolidine-1-carbonyl)-3,4-dihydro-1H-pyrrolo[2,1-c][1,4]oxazine-8-carboxylic acid ((R)-1-phenyl-propyl)-amide]
380 | CC(C)[C@@H](NC(=O)c1cc(C(=O)N2CCC[C@@H]2C)n2c1COCC2)c1ccc(F)cc1 [16p, 6-((S)-2-Methyl-pyrrolidine-1-carbonyl)-3,4-dihydro-1H-pyrrolo[2,1-c][1,4]oxazine-8-carboxylic acid [(R)-1-(4-fluoro-phenyl)-2-methyl-propyl]-amide]
180 | CCOC(=O)CNC(=O)c1cc(C(=O)N[C@H](CC)c2ccccc2)c2n1CCOC2 [16k, {[8-((R)-1-Phenyl-propylcarbamoyl)-3,4-dihydro-1H-pyrrolo[2,1-c][1,4]oxazine-6-carbonyl]-amino}-acetic acid ethyl ester]
290 | CC[C@@H](NC(=O)c1cc(C(=O)N2CCC[C@@H]2C)n2c1COCC2)c1ccc(Cl)c(C(F)(F)F)c1 [16cs, 6-((S)-Methyl-pyrrolidine-1-carbonyl)-3,4-dihydro-1H-pyrrolo[2,1-c][1,4]oxazine-8-carboxylic acid [(R)-1-(4-chloro-3-trifluoromethyl-phenyl)-propyl]-amide]
330 | CC[C@@H](NC(=O)c1cc(C(=O)N2CC[C@H](OCC3CC3)C2)n2c1COCC2)c1ccccc1 [16ev, 6-((S)-3-Cyclopropylmethoxy-pyrrolidine-1-carbonyl)-3,4-dihydro-1H-pyrrolo[2,1-c][1,4]oxazine-8-carboxylic acid ((R)-1-phenyl-propyl)-amide]
36 | CC[C@@H](NC(=O)c1cc(C(=O)NCCC2CC2)n2c1COCC2)c1ccccc1 [16gk, 3,4-Dihydro-1H-pyrrolo[2,1-c][1,4]oxazine-6,8-dicarboxylic acid 6-[(2-cyclopropyl-ethyl)-amide] 8-[((R)-1-phenyl-propyl)-amide]]
51 | CC[C@@H](NC(=O)c1cc(C(=O)N[C@H](CC)c2ccccc2)n2c1CCCC2)c1ccccc1 [16ma, 5,6,7,8-Tetrahydro-indolizine-1,3-dicarboxylic acid bis-[((R)-1-phenyl-propyl)-amide]]
460 | CC(C)[C@@H](NC(=O)c1cc(C(=O)N2CCC[C@@H]2C)n2c1COCC2)c1ccc(C(F)(F)F)nc1 [16aq, 6-((S)-2-Methyl-pyrrolidine-1-carbonyl)-3,4-dihydro-1H-pyrrolo[2,1-c][1,4]oxazine-8-carboxylic acid [(R)-2-methyl-1-(6-trifluoromethyl-pyridin-3-yl)-propyl]-amide]
160 | C[C@@H](NC(=O)c1cc(C(=O)N2CCC[C@@H]2C(F)(F)F)c2n1CCOC2)c1ccc(F)cc1 [16dk, 8-((R)-2-Trifluoromethyl-pyrrolidine-1-carbonyl)-3,4-dihydro-1H-pyrrolo[2,1-c][1,4]oxazine-6-carboxylic acid [(R)-1-(4-fluoro-phenyl)-ethyl]-amide]
360 | CC[C@@H](NC(=O)c1cc(C(=O)N[C@H](CC)c2cnccn2)n2c1COCC2)c1ccccc1 [16hw, 3,4-Dihydro-1H-pyrrolo[2,1-c][1,4]oxazine-6,8-dicarboxylic acid 8-[((R)-1-phenyl-propyl)-amide] 6-[((R)-1-pyrazin-2-yl-propyl)-amide]]
200 | CC[C@@H](NC(=O)c1cc(C(=O)N2CCC[C@@H]2C)c2n1CCOC2)c1ccccc1 [16ki, 8-((S)-2-Methyl-pyrrolidine-1-carbonyl)-3,4-dihydro-1H-pyrrolo[2,1-c][1,4]oxazine-6-carboxylic acid ((R)-1-phenyl-propyl)-amide]
44 | CC[C@@H](NC(=O)c1cc(C(=O)N2CCC[C@@H]2C)n2c1COCC2)c1c(F)cccc1F [16t, 6-((S)-2-Methyl-pyrrolidine-1-carbonyl)-3,4-dihydro-1H-pyrrolo[2,1-c][1,4]oxazine-8-carboxylic acid [(R)-1-(2,6-difluoro-phenyl)-propyl]-amide]
560 | CC[C@H](NC(=O)c1cc(C(=O)N[C@H](CC)c2ccccc2)c2n1CCOC2)c1ccc(OC)nc1 [16hp, 3,4-Dihydro-1H-pyrrolo[2,1-c][1,4]oxazine-6,8-dicarboxylic acid 6-{[(S)-1-(6-methoxy-pyridin-3-yl)-propyl]-amide} 8-[((R)-1-phenyl-propyl)-amide]]
120 | CC[C@@H](NC(=O)c1cc(C(=O)N[C@H](CC)c2ncccc2OC)n2c1COCC2)c1ccccc1 [16ia, 3,4-Dihydro-1H-pyrrolo[2,1-c][1,4]oxazine-6,8-dicarboxylic acid 6-{[(R)-1-(3-methoxy-pyridin-2-yl)-propyl]-amide} 8-[((R)-1-phenyl-propyl)-amide]]
90 | CC[C@@H](NC(=O)c1cc(C(=O)N2CCC[C@@H]2C)c2n1CCOC2)c1ccccc1Cl [16nh, 8-((S)-2-Methyl-pyrrolidine-1-carbonyl)-3,4-dihydro-1H-pyrrolo[2,1-c][1,4]oxazine-6-carboxylic acid [(R)-1-(2-chloro-phenyl)-propyl]-amide]
240 | CC[C@@H](NC(=O)c1cc(C(=O)N2CCC[C@@H]2c2ccc(OC)nc2)n2c1COCC2)c1ccccc1 [16fl, 6-[(R)-2-(6-Methoxy-pyridin-3-yl)-pyrrolidine-1-carbonyl]-3,4-dihydro-1H-pyrrolo[2,1-c][1,4]oxazine-8-carboxylic acid ((R)-1-phenyl-propyl)-amide]
110 | CC[C@@H](NC(=O)c1cc(C(=O)NCc2ccccc2)n2c1CCCC2)c1ccccc1 [16nf, 5,6,7,8-Tetrahydro-indolizine-1,3-dicarboxylic acid 3-benzylamide 1-[((R)-1-phenyl-propyl)-amide]]
290 | CC[C@@H](NC(=O)c1cc(C(=O)N2CCC[C@@H]2C)c2n1CCOC2)c1ccccc1C(F)(F)F [16ni, 8-((S)-2-Methyl-pyrrolidine-1-carbonyl)-3,4-dihydro-1H-pyrrolo[2,1-c][1,4]oxazine-6-carboxylic acid [(R)-1-(2-trifluoromethyl-phenyl)-propyl]-amide]
270 | CC[C@@H](NC(=O)c1cc(C(=O)N2CCC[C@H]2C)c2n1CCOC2)c1ccccc1 [16kj, 8-((R)-2-Methyl-pyrrolidine-1-carbonyl)-3,4-dihydro-1H-pyrrolo[2,1-c][1,4]oxazine-6-carboxylic acid ((R)-1-phenyl-propyl)-amide]
330 | CC[C@@H](NC(=O)c1cc(C(=O)NCc2cccc(C(=O)OC)c2)n2c1COCC2)c1ccccc1 [16iq, 3-({[8-((R)-1-Phenyl-propylcarbamoyl)-3,4-dihydro-1H-pyrrolo[2,1-c][1,4]oxazine-6-carbonyl]-amino}-methyl)-benzoic acid methyl ester]
310 | CCC(NC(=O)c1cc(C(=O)N2CCCC2)n2c1COCC2)c1ccccc1OC(F)F (centres unmarked) [16cz, 6-(Pyrrolidine-1-carbonyl)-3,4-dihydro-1H-pyrrolo[2,1-c][1,4]oxazine-8-carboxylic acid [1-(2-difluoromethoxy-phenyl)-propyl]-amide]
360 | CC(C)[C@@H](NC(=O)c1cc(C(=O)N[C@@H](C)c2ncccn2)c2n1CCOC2)c1ccc(F)cc1 (racemic) [16lr, 3,4-Dihydro-1H-pyrrolo[2,1-c][1,4]oxazine-6,8-dicarboxylic acid 6-{[(R)-1-(4-fluoro-phenyl)-2-methyl-propyl]-amide} 8-[((S)-1-pyrimidin-2-yl-ethyl)-amide]]
